Assay results as given in ChEMBL document CHEMBL5247640 (J Med Chem, 2023).
One block for each molecule: values may come before it.

Experiments:
[1] = Metabolic stability in rat liver microsomes assessed as half life; format: ADME, Microsome
[2] = Half life in ICR mouse at 30 mg/kg, po measured after 24 hrs by LC-MS/MS analysis; format: ADME, organism-based; conditions: in vivo
[3] = Hepatotoxicity in ICR mouse assessed as upregulation of Me1 mRNA expression in liver by measuring fold change at 3 to 10 mg/kg, po administered as single dose by qRT-PCR analysis; format: toxicity, organism-based; conditions: in vivo, dose 3-10 mg/kg
[4] = Cmax in ICR mouse at 30 mg/kg, po measured after 24 hrs by LC-MS/MS analysis; format: ADME, organism-based; set-up: time 24 hrs, dose 30 mg/kg, route po; conditions: in vivo
[5] = Cardiotoxicity in ICR mouse assessed as changes in Myh6/Myh7 ratio in heart at 3 to 10 mg/kg, po administered as single dose by qRT-PCR analysis; format: toxicity, organism-based; conditions: in vivo, dose 3-10 mg/kg
[6] = AUClast in ICR mouse serum at 10 mg/kg, po measured after 24 hrs by LC-MS/MS analysis; format: ADME, organism-based; set-up: time 24 hrs, dose 10 mg/kg, route po
[7] = Tmax in ICR mouse liver at 10 mg/kg, po measured after 24 hrs by LC-MS/MS analysis; format: ADME, organism-based
[8] = Toxicity in ICR mouse assessed as decrease in serum total cholesterol level at 10 mg/kg, po administered as single dose measured after 24 hrs by automated biochemical analyzer; format: organism-based; set-up: scale not given: the % may be the effect or the level left; conditions: in vivo
[9] = Metabolic stability in human liver microsomes assessed as half life; format: ADME, Microsome
[10] = Toxicity in ICR mouse assessed as decrease in serum total LDL-cholesterol level at 10 mg/kg, po administered as single dose measured after 24 hrs by automated biochemical analyzer; format: organism-based; set-up: scale not given: the % may be the effect or the level left; conditions: in vivo
[11] = Cardiotoxicity in ICR mouse assessed as changes in Myh6 mRNA expression in heart at 3 to 10 mg/kg, po administered as single dose by qRT-PCR analysis; format: toxicity, organism-based; conditions: in vivo, dose 3-10 mg/kg
[12] = Tmax in ICR mouse at 30 mg/kg, po measured after 24 hrs by LC-MS/MS analysis; format: ADME, organism-based; conditions: in vivo
[13] = Toxicity in ICR mouse assessed as decrease in serum total LDL-cholesterol level at 3 mg/kg, po administered as single dose measured after 24 hrs by automated biochemical analyzer; format: organism-based; set-up: scale not given: the % may be the effect or the level left; conditions: in vivo
[14] = AUClast in ICR mouse liver at 10 mg/kg, po measured after 24 hrs by LC-MS/MS analysis; format: ADME, organism-based; conditions: in vivo
[15] = Metabolic stability in rat liver microsomes assessed as intrinsic clearance; format: ADME, Microsome
[16] = Metabolic stability in mouse liver microsomes assessed as half life; format: ADME, Microsome
[17] = Half life in ICR mouse serum at 10 mg/kg, po measured after 24 hrs by LC-MS/MS analysis; format: ADME, organism-based
[18] = Hepatotoxicity in ICR mouse assessed as upregulation of THRSP mRNA expression in liver by measuring fold change at 3 to 10 mg/kg, po administered as single dose by qRT-PCR analysis; format: toxicity, organism-based; conditions: in vivo, dose 3-10 mg/kg
[19] = AUClast in ICR mouse at 30 mg/kg, po measured after 24 hrs by LC-MS/MS analysis; format: ADME, organism-based; set-up: dose 30 mg/kg, time 24 hrs, route po; conditions: in vivo
[20] = Metabolic stability in human liver microsomes assessed as intrinsic clearance; format: ADME, Microsome
[21] = Toxicity in ICR mouse assessed as decrease in serum total cholesterol level at 30 mg/kg, po administered as single dose measured after 24 hrs by automated biochemical analyzer; format: organism-based; set-up: scale not given: the % may be the effect or the level left; conditions: in vivo
[22] = Cardiotoxicity in ICR mouse assessed as changes in Myh7 mRNA expression in heart at 3 to 10 mg/kg, po administered as single dose by qRT-PCR analysis; format: toxicity, organism-based; conditions: in vivo, dose 3-10 mg/kg
[23] = Hepatotoxicity in ICR mouse assessed as upregulation of Dio1 mRNA expression in liver by measuring fold change at 3 to 10 mg/kg, po administered as single dose by qRT-PCR analysis; format: toxicity, organism-based; conditions: in vivo, dose 3-10 mg/kg
[24] = Metabolic stability in mouse liver microsomes assessed as intrinsic clearance; format: ADME, Microsome
[25] = Cmax in ICR mouse liver at 10 mg/kg, po measured after 24 hrs by LC-MS/MS analysis; format: ADME, organism-based; set-up: dose 10 mg/kg, time 24 hrs, route po
[26] = Tmax in ICR mouse serum at 10 mg/kg, po measured after 24 hrs by LC-MS/MS analysis; format: ADME, organism-based
[27] = Cmax in ICR mouse serum at 10 mg/kg, po measured after 24 hrs by LC-MS/MS analysis; format: ADME, organism-based; set-up: dose 10 mg/kg, time 24 hrs, route po
[28] = Toxicity in ICR mouse assessed as decrease in serum total cholesterol level at 3 mg/kg, po administered as single dose measured after 24 hrs by automated biochemical analyzer; format: organism-based; set-up: scale not given: the % may be the effect or the level left; conditions: in vivo
[29] = Toxicity in ICR mouse assessed as decrease in serum total cholesterol level at 1 mg/kg, po administered as single dose measured after 24 hrs by automated biochemical analyzer; format: organism-based; set-up: scale not given: the % may be the effect or the level left; conditions: in vivo
[30] = Toxicity in ICR mouse assessed as decrease in serum total LDL-cholesterol level at 1 mg/kg, po administered as single dose measured after 24 hrs by automated biochemical analyzer; format: organism-based; set-up: scale not given: the % may be the effect or the level left; conditions: in vivo
[31] = Cardiotoxicity in ICR mouse assessed as upregulation of Myh6 mRNA expression in heart at 1 mg/kg, po administered as single dose by qRT-PCR analysis; format: toxicity, organism-based; conditions: in vivo

half-life [1]: 4.08 h
half-life [2]: 16.7 h
Cmax [4]: 12100 ng/mL
AUC(0-t) at 24 h [6]: 57.1 µg·h/mL
Tmax [7]: 4 h
half-life [9]: 1.32 h
Tmax [12]: 6 h
AUClast [14]: 349501 ng·h/g
CLH [15]: 8.6 mL/min/g
half-life [16]: 3.88 h
half-life [17]: 9.1 h
AUC(0-t) at 24 h [19]: 168 µg·h/mL
CLH [20]: 26.5 mL/min/g
CLH [24]: 9 mL/min/g
Cmax [25]: 24300 ng/g
Tmax [26]: 2.7 h
Cmax [27]: 5710 ng/mL
SMILES: CC(C)c1cc(Oc2c(Cl)cc(-n3nc(C#N)c(=O)[nH]c3=O)cc2Cl)n[nH]c1=O [RESMETIROM]
fold change (FC) [3]: 1.8
Activity [5]: Non-Toxic
Activity [8]: 36.9%
Activity [10]: 39.8%
Activity [11]: Non-Toxic
Activity [13]: 39.3%
fold change (FC) [18]: 10
Activity [21]: 20.4%
Activity [22]: Non-Toxic
fold change (FC) [23]: 12
Activity [28]: 27.2%

SMILES: N[C@@H](Cc1cc(I)c(Oc2ccc(O)c(I)c2)c(I)c1)C(=O)O [LIOTHYRONINE]
Activity [29]: 44%
Activity [30]: 61.9%
Activity [31]: Toxic
